Laboratory results taken from the supplement of paper PMC13207355.
Structures can show the parent of a compound that is named as a salt.

Columns and labels:
Conditions in all cases: exposure time: 72 h
E13 [1] = patient-derived glioblastoma stem cells of classical subtype; assay: surviving fraction (nuclei count normalised to DMSO); higher = more cells surviving (less toxic)
E31 [2] = patient-derived glioblastoma stem cells of proneural subtype; assay: as above
E34 [3] = patient-derived glioblastoma stem cells of proneural subtype; assay: as above
E28 [4] = patient-derived glioblastoma stem cells of classical subtype; assay: as above
E21 [5] = patient-derived glioblastoma stem cells of mesenchymal subtype; assay: as above
FT3469 [6] = normal neural stem cell line; assay: as above
E57 [7] = patient-derived glioblastoma stem cells of mesenchymal subtype; assay: as above
E13 [8] = assay: phenotypic distance (Euclidean, principal components) from DMSO controls (arbitrary units); higher = stronger morphological change
E31 [9] = assay: as above
E34 [10] = assay: as above
E28 [11] = assay: as above
E21 [12] = assay: as above
FT3469 [13] = assay: as above
E57 [14] = assay: as above
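Throughout, for phenotypic distance (Euclidean, principal components) from DMSO controls: cell Painting imaging in 384-well plates, CellProfiler features reduced to at least 20 principal components, Euclidean distance versus same-plate DMSO vehicle wells (0.1% v/v), median over six images per well.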
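Throughout, for surviving fraction (nuclei count normalised to DMSO): nuclei counted by high-content imaging of Hoechst-stained cells in laminin-coated 384-well plates, relative to 0.1% DMSO vehicle wells, with staurosporine as cell-death control.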

NC(=O)c1ccccc1 [Benzamide]
Conditions | phenotypic distance | surviving fraction
E13 [1], 4.1 nM | – | 0.896
E13 [1], 12.3 nM | – | 0.891
E13 [1], 37 nM | – | 0.961
E13 [1], 111.1 nM | – | 1.04
E13 [1], 333.3 nM | – | 1.03
E13 [1], 1000 nM | – | 0.945
E13 [1], 3000 nM | – | 1.04
E13 [8], 4.1 nM | 0.817 | –
E13 [8], 12.3 nM | 0.661 | –
E13 [8], 37 nM | 0.401 | –
E13 [8], 111.1 nM | 0.597 | –
E13 [8], 333.3 nM | 0.747 | –
E13 [8], 1000 nM | 0.669 | –
E13 [8], 3000 nM | 0.437 | –
E21 [5], 4.1 nM | – | 1.03
E21 [5], 12.3 nM | – | 0.945
E21 [5], 37 nM | – | 0.996
E21 [5], 111.1 nM | – | 1.1
E21 [5], 333.3 nM | – | 1.04
E21 [5], 1000 nM | – | 0.872
E21 [5], 3000 nM | – | 1
E21 [12], 4.1 nM | 0.487 | –
E21 [12], 12.3 nM | 0.521 | –
E21 [12], 37 nM | 0.591 | –
E21 [12], 111.1 nM | 1.08 | –
E21 [12], 333.3 nM | 0.913 | –
E21 [12], 1000 nM | 0.784 | –
E21 [12], 3000 nM | 0.381 | –
E28 [4], 4.1 nM | – | 0.82
E28 [4], 12.3 nM | – | 1.08
E28 [4], 37 nM | – | 0.909
E28 [4], 111.1 nM | – | 1.31
E28 [4], 333.3 nM | – | 1.03
E28 [4], 1000 nM | – | 1.09
E28 [4], 3000 nM | – | 1.04
E28 [11], 4.1 nM | 0.972 | –
E28 [11], 12.3 nM | 1.17 | –
E28 [11], 37 nM | 0.735 | –
E28 [11], 111.1 nM | 1.32 | –
E28 [11], 333.3 nM | 0.871 | –
E28 [11], 1000 nM | 1.28 | –
E28 [11], 3000 nM | 0.95 | –
E31 [2], 4.1 nM | – | 0.994
E31 [2], 12.3 nM | – | 0.978
E31 [2], 37 nM | – | 0.972
E31 [2], 111.1 nM | – | 1.02
E31 [2], 333.3 nM | – | 0.968
E31 [2], 1000 nM | – | 1.07
E31 [2], 3000 nM | – | 0.947
E31 [9], 4.1 nM | 0.849 | –
E31 [9], 12.3 nM | 1.02 | –
E31 [9], 37 nM | 1.47 | –
E31 [9], 111.1 nM | 1.03 | –
E31 [9], 333.3 nM | 0.83 | –
E31 [9], 1000 nM | 0.791 | –
E31 [9], 3000 nM | 0.951 | –
E34 [3], 4.1 nM | – | 1.03
E34 [3], 12.3 nM | – | 0.958
E34 [3], 37 nM | – | 0.993
E34 [3], 111.1 nM | – | 1.04
E34 [3], 333.3 nM | – | 0.904
E34 [3], 1000 nM | – | 1.29
E34 [3], 3000 nM | – | 1.03
E34 [10], 4.1 nM | 1.19 | –
E34 [10], 12.3 nM | 0.687 | –
E34 [10], 37 nM | 0.776 | –
E34 [10], 111.1 nM | 1.03 | –
E34 [10], 333.3 nM | 0.862 | –
E34 [10], 1000 nM | 1.13 | –
E34 [10], 3000 nM | 0.579 | –
E57 [7], 4.1 nM | – | 0.938
E57 [7], 12.3 nM | – | 1.06
E57 [7], 37 nM | – | 1.02
E57 [7], 111.1 nM | – | 0.94
E57 [7], 333.3 nM | – | 0.938
E57 [7], 1000 nM | – | 0.896
E57 [7], 3000 nM | – | 0.99
E57 [14], 4.1 nM | 0.41 | –
E57 [14], 12.3 nM | 0.828 | –
E57 [14], 37 nM | 0.568 | –
E57 [14], 111.1 nM | 0.557 | –
E57 [14], 333.3 nM | 0.555 | –
E57 [14], 1000 nM | 0.56 | –
E57 [14], 3000 nM | 0.478 | –
FT3469 [6], 4.1 nM | – | 0.912
FT3469 [6], 12.3 nM | – | 1.15
FT3469 [6], 37 nM | – | 0.999
FT3469 [6], 111.1 nM | – | 0.863
FT3469 [6], 333.3 nM | – | 0.935
FT3469 [6], 1000 nM | – | 0.921
FT3469 [6], 3000 nM | – | 1.1
FT3469 [13], 4.1 nM | 0.505 | –
FT3469 [13], 12.3 nM | 1.05 | –
FT3469 [13], 37 nM | 0.628 | –
FT3469 [13], 111.1 nM | 1.13 | –
FT3469 [13], 333.3 nM | 0.522 | –
FT3469 [13], 1000 nM | 1.07 | –
FT3469 [13], 3000 nM | 0.83 | –

COc1cccc2c1C(=O)c1c(O)c3c(c(O)c1C2=O)C[C@@](O)(C(=O)CO)C[C@@H]3O[C@H]1C[C@H](N)[C@H](O)[C@H](C)O1 [Doxorubicin hydrochloride]
Conditions | phenotypic distance | surviving fraction
E13 [1], 4.1 nM | – | 0.639
E13 [1], 12.3 nM | – | 0.527
E13 [1], 37 nM | – | 0.409
E13 [1], 111.1 nM | – | 0.265
E13 [1], 333.3 nM | – | 0.188
E13 [1], 1000 nM | – | 0.0799
E13 [1], 3000 nM | – | 0.0133
E13 [8], 4.1 nM | 2.25 | –
E13 [8], 12.3 nM | 3.82 | –
E13 [8], 37 nM | 5.4 | –
E13 [8], 111.1 nM | 6.04 | –
E13 [8], 333.3 nM | 6.31 | –
E13 [8], 1000 nM | 6.48 | –
E13 [8], 3000 nM | 6.01 | –
E21 [5], 4.1 nM | – | 0.799
E21 [5], 12.3 nM | – | 0.544
E21 [5], 37 nM | – | 0.428
E21 [5], 111.1 nM | – | 0.237
E21 [5], 333.3 nM | – | 0.17
E21 [5], 1000 nM | – | 0.0999
E21 [5], 3000 nM | – | 0.0192
E21 [12], 4.1 nM | 1.5 | –
E21 [12], 12.3 nM | 4.4 | –
E21 [12], 37 nM | 6.35 | –
E21 [12], 111.1 nM | 5.11 | –
E21 [12], 333.3 nM | 5.4 | –
E21 [12], 1000 nM | 5.92 | –
E21 [12], 3000 nM | 6.77 | –
E28 [4], 4.1 nM | – | 0.535
E28 [4], 12.3 nM | – | 0.403
E28 [4], 37 nM | – | 0.341
E28 [4], 111.1 nM | – | 0.163
E28 [4], 333.3 nM | – | 0.174
E28 [4], 1000 nM | – | 0.35
E28 [4], 3000 nM | – | 0.0586
E28 [11], 4.1 nM | 2.14 | –
E28 [11], 12.3 nM | 2.39 | –
E28 [11], 37 nM | 2.6 | –
E28 [11], 111.1 nM | 3.51 | –
E28 [11], 333.3 nM | 3.16 | –
E28 [11], 1000 nM | 3.08 | –
E28 [11], 3000 nM | 5.26 | –
E31 [2], 4.1 nM | – | 0.425
E31 [2], 12.3 nM | – | 0.381
E31 [2], 37 nM | – | 0.269
E31 [2], 111.1 nM | – | 0.186
E31 [2], 333.3 nM | – | 0.105
E31 [2], 1000 nM | – | 0.0519
E31 [2], 3000 nM | – | 0.0645
E31 [9], 4.1 nM | 2.91 | –
E31 [9], 12.3 nM | 2.49 | –
E31 [9], 37 nM | 2.07 | –
E31 [9], 111.1 nM | 2.28 | –
E31 [9], 333.3 nM | 4.77 | –
E31 [9], 1000 nM | 5.51 | –
E31 [9], 3000 nM | 5.71 | –
E34 [3], 4.1 nM | – | 0.738
E34 [3], 12.3 nM | – | 0.599
E34 [3], 37 nM | – | 0.502
E34 [3], 111.1 nM | – | 0.539
E34 [3], 333.3 nM | – | 0.502
E34 [3], 1000 nM | – | 0.346
E34 [3], 3000 nM | – | 0.123
E34 [10], 4.1 nM | 0.849 | –
E34 [10], 12.3 nM | 3.53 | –
E34 [10], 37 nM | 4.3 | –
E34 [10], 111.1 nM | 3.08 | –
E34 [10], 333.3 nM | 2.7 | –
E34 [10], 1000 nM | 5.02 | –
E34 [10], 3000 nM | 4.21 | –
E57 [7], 4.1 nM | – | 0.74
E57 [7], 12.3 nM | – | 0.411
E57 [7], 37 nM | – | 0.229
E57 [7], 111.1 nM | – | 0.172
E57 [7], 333.3 nM | – | 0.164
E57 [7], 1000 nM | – | 0.113
E57 [7], 3000 nM | – | 0.0765
E57 [14], 4.1 nM | 1.85 | –
E57 [14], 12.3 nM | 4.6 | –
E57 [14], 37 nM | 8.27 | –
E57 [14], 111.1 nM | 7.23 | –
E57 [14], 333.3 nM | 7.01 | –
E57 [14], 1000 nM | 7.35 | –
E57 [14], 3000 nM | 7.3 | –
FT3469 [6], 4.1 nM | – | 0.574
FT3469 [6], 12.3 nM | – | 0.678
FT3469 [6], 37 nM | – | 0.598
FT3469 [6], 111.1 nM | – | 0.582
FT3469 [6], 333.3 nM | – | 0.234
FT3469 [6], 1000 nM | – | 0.149
FT3469 [6], 3000 nM | – | 0.0213
FT3469 [13], 4.1 nM | 1.83 | –
FT3469 [13], 12.3 nM | 1.46 | –
FT3469 [13], 37 nM | 1.66 | –
FT3469 [13], 111.1 nM | 1.6 | –
FT3469 [13], 333.3 nM | 4.2 | –
FT3469 [13], 1000 nM | 3 | –
FT3469 [13], 3000 nM | 8.29 | –
